Starred links: 1 amine or outer side, 2 acyl side, 3 side chain; linkers in the order of their positions; H or OH if unused. Residues, ends and D or L forms follow the SMILES beside them. Groups on a side chain read outwards from the residue. *: point of attachment. C20 diacid = O=C(O)CCCCCCCCCCCCCCCCCCC(=O)*; C18 diacid = O=C(O)CCCCCCCCCCCCCCCCC(=O)*; γGlu = O=C(O)[C@H](CCC(=O)[*:2])N[*:1]
Experiments:
[1] = molecular target: T1, human amylin receptor (hAMYR3) (Homo sapiens, UniProt O60896+P30988); assay: Human amylin receptor (hAMYR3) in vitro potency assay, CRE-luciferase reporter in BHK cells; type: cell-based; settings: BHK hAMYR3/CRE-Luc cells, 3 hours incubation, assay buffer with 1% ovalbumin
T1 construct: host or cells: BHK (Baby Hamster Kidney), Hollex-1 cell line further transfected with RAMP3
T1 sequence (P30988 25-474): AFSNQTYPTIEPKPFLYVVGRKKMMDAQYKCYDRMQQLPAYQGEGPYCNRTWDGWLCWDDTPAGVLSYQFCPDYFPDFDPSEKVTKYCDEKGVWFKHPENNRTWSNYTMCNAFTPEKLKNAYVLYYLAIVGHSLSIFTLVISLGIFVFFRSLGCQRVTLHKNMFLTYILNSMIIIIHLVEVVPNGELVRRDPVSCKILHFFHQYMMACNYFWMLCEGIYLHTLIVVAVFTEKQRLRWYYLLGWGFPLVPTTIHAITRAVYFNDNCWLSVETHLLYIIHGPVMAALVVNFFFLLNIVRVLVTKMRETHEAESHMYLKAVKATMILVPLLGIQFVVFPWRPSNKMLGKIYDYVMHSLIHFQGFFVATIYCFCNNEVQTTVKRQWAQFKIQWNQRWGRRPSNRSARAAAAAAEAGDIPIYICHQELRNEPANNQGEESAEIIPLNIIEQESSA
T1 sequence (O60896 24-148): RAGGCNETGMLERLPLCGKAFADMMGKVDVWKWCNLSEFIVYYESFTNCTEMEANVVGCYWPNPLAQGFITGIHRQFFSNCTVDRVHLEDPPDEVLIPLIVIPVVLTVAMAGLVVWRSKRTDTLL
How it was run: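 Luminescence from a CRE-driven luciferase reporter reflects cAMP-mediated receptor activation. Peptides were serially diluted (7 concentrations, 7-fold steps, typically starting near 10 nM) in buffer with 1% ovalbumin and applied for 3 h at 37 °C to BHK cells co-expressing calcitonin receptor (a) and RAMP3.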

[2] = Oral pharmacokinetic profiles in Beagle dogs (SNAC tablets); type: in vivo; settings: oral tablet: 3 mg compound, 300 mg SNAC, 7.7 mg magnesium stearate; for half-life: male, dog, plasma, read-out: T½ (converted)
Method: To be able to evaluate oral exposure following tablet dosing, tablet compositions comprising the test substance and SNAC (sodium N-(8-(2-hydroxybenzoyl)amino)caprylate) were prepared by mixing test substance with roller compacted SNAC and magnesium stearate as, e.g., described in WO 2019/149880.
This assay was performed to measure the oral bioavailability of a compound. The assay determined the exposure of test compound following oral administration in Beagle dogs as described by relevant pharmacokinetic parameters and plasma concentration curves.
Preparation of tablets for oral administration: tablets containing test compound used for the assay described herein were immediate release SNAC-based tablets. The test compound was spray-dried as neutral sodium salt (pH 7-8). Dry granulation was carried out by roller compaction on a Gerteis MINI-PACTOR. Tablets containing 3 mg test compound, 300 mg sodium N-(8-(2-hydroxybenzoyl)amino)caprylate (SNAC) and 7.7 mg magnesium stearate were produced on at Kilian Style One using 7.2×12 mm punches.
Determination of the absorption following oral administration: eight (8) male Beagle dogs, 1 to 8 years of age and weighing approximately 10-15 kg at the start of the studies, were used. The dogs were group-housed in pens (12 hours light:12 hours dark), and fed individually and restrictedly once daily with Royal Canin Medium Adult dog (Royal Canin Products, China Branch, or Brogaarden A/S, Denmark). Exercise and group social were permitted daily, whenever possible. The dogs were used for repeated pharmacokinetic studies with a suitable wash-out period between successive dosing. An appropriate acclimatisation period was given prior to initiation of the first pharmacokinetic study. All handling, dosing and blood sampling of the animals were performed by trained and skilled staff. Before the studies the dogs were fasted overnight and from 0 to 4 h after dosing. Besides, the dogs were restricted to water 1 hour before dosing until 4 hours after dosing, but otherwise had ad libitum access to water during the whole period.
Tablets containing the test compound were administered in the following manner: 10 min prior to tablet administration the dogs were dosed subcutaneously with approximately 3.2 nmol/kg of glucagon. The tablets were placed in the back of the mouth of the dog to prevent chewing. The mouth was then closed, and 10 mL of tap water was given by a syringe to facilitate swallowing of the tablet. Blood was sampled at predefined time points for up till 288 hours after dosing to adequately cover the full plasma concentration-time absorption profile of the compound. For each blood sampling time point approximately 1.2 mL of whole blood was collected in a 1.5 mL EDTA coated tube, and the tube was gently turned to allowing mixing of the sample with the EDTA. Then, the blood samples were kept on ice until centrifugation (4 min, 4° C., 4000 rpm). Plasma was pipetted into Micronic tubes on dry ice and kept at −20° C. until analysis. Blood samples were taken as appropriate, for example from a venflon in the cephalic vein in the front leg for the first 2 hours and then with syringe from the jugular vein for the rest of the time points (the first few drops were allowed to drain from the venflon to avoid heparin saline from the venflon in the sample).
Bioanalysis was carried out as follows: plasma concentrations of test compound were assayed by plasma protein precipitation and analysed by liquid chromatography-mass spectrometry (LC-MS). Calibrators were prepared by spiking blank dog plasma with analytes to reach the final concentrations in the range typically from 0.5 to 200 nM. Calibrators, plasma blanks or study samples were prepared for LC-MS by protein precipitation by adding 3 volumes of ethanol followed by centrifugation at 4000 rpm at 4° C. for 1 h. The supernatant was diluted with 2 volumes of Milli-Q water containing 0.1% formic acid before injection on the LC-MS system. […]

Structure (SMILES)	EC50 [1]	half-life [2]	AUC/D [2]	Cmax/D [2]
CC[C@H](C)[C@H](NC(=O)[C@@H]1CCCN1C(=O)CNC(=O)[C@H](Cc1ccccc1)NC(=O)[C@H](Cc1c[nH]cn1)NC(=O)[C@H](Cc1c[nH]cn1)NC(=O)[C@H](CC(C)C)NC(=O)[C@H](Cc1ccccc1)NC(=O)[C@H](CCC(=O)O)NC(=O)[C@H](C)NC(=O)[C@H](CC(C)C)NC(=O)[C@H](CCCNC(=N)N)NC(=O)[C@H](CCC(N)=O)NC(=O)[C@@H](NC(=O)[C@H](CCC(N)=O)NC(=O)[C@H](C)NC(=O)[C@@H](NC(=O)[C@H](CO)NC(=O)[C@H](CC(C)C)NC(=O)[C@H](Cc1c[nH]cn1)NC(=O)[C@H](CO)NC(=O)[C@H](C)NC(=O)CC[C@H](NC(=O)CCCCCCCCCCCCCCCCCCC(=O)O)C(=O)O)[C@@H](C)O)[C@@H](C)O)C(=O)N[C@@H](CC(C)C)C(=O)N1CCC[C@H]1C(=O)N1CCC[C@H]1C(=O)N[C@H](C(=O)N[C@@H](CC(=O)O)C(=O)N[C@H](C(=O)NCC(=O)N[C@@H](CO)C(=O)N[C@@H](CCC(=O)O)C(=O)N[C@H](C(=O)N1CCC[C@H]1C(N)=O)[C@@H](C)O)C(C)C)[C@@H](C)O [Compound 4, N^1-[(4S)-4-carboxy-4-(19-carboxynonadecanoylamino)butanoyl]-[Ala1,Ser2,His3,Leu4,Ser5,Ala7,Gln8,Glu14,His17,Pro25,Pro28,Pro29,Asp31,Glu35,Pro37],des-(19-22)-human amylin] ({C20 diacid-γGlu}-ASHLSTAQTQRLAEFLHHFGPILPPTDVGSETP-NH2)	1.12 pM	130 h	21.24 kg·h/L	0.23 kg/L
CC[C@H](C)[C@H](NC(=O)[C@H](C)NC(=O)CNC(=O)[C@H](Cc1ccccc1)NC(=O)[C@@H]1CCCN1C(=O)[C@H](CC(=O)O)NC(=O)[C@H](CO)NC(=O)[C@H](CO)NC(=O)[C@H](Cc1c[nH]cn1)NC(=O)[C@H](Cc1c[nH]cn1)NC(=O)[C@H](CC(C)C)NC(=O)[C@H](Cc1ccccc1)NC(=O)[C@H](CCC(=O)O)NC(=O)[C@H](C)NC(=O)[C@H](CC(C)C)NC(=O)[C@H](CCCNC(=N)N)NC(=O)[C@H](CCC(N)=O)NC(=O)[C@@H](NC(=O)[C@H](CCC(N)=O)NC(=O)[C@H](C)NC(=O)[C@@H](NC(=O)[C@H](CO)NC(=O)[C@H](CC(C)C)NC(=O)[C@H](Cc1c[nH]cn1)NC(=O)[C@H](CO)NC(=O)[C@H](C)NC(=O)CC[C@H](NC(=O)CCCCCCCCCCCCCCCCC(=O)O)C(=O)O)[C@@H](C)O)[C@@H](C)O)C(=O)N1CCC[C@H]1C(=O)N[C@@H](CO)C(=O)N[C@@H](CO)C(=O)N[C@H](C(=O)N[C@@H](CC(=O)O)C(=O)N[C@H](C(=O)NCC(=O)N1CCC[C@H]1C(=O)N[C@@H](CC(=O)O)C(=O)N[C@H](C(=O)N1CCC[C@H]1C(N)=O)[C@@H](C)O)C(C)C)[C@@H](C)O [Compound 8, N^1-[(4S)-4-carboxy-4-(17-carboxyheptadecanoylamino)butanoyl]-[Ala1,Ser2,His3,Leu4,Ser5,Ala7,Gln8,Glu14,His17,Asp21,Pro22,Pro27,Asp31,Pro34,Asp35,Pro37]-human amylin] ({C18 diacid-γGlu}-ASHLSTAQTQRLAEFLHHSSDPFGAIPSSTDVGPDTP-NH2)	1.5 pM	121 h	17.52 kg·h/L	0.24 kg/L
CC[C@H](C)[C@H](NC(=O)[C@H](C)NC(=O)CNC(=O)[C@H](Cc1ccccc1)NC(=O)[C@@H]1CCCN1C(=O)[C@H](CC(=O)O)NC(=O)[C@H](CO)NC(=O)[C@H](CO)NC(=O)[C@H](Cc1c[nH]cn1)NC(=O)[C@H](Cc1c[nH]cn1)NC(=O)[C@H](CC(C)C)NC(=O)[C@H](Cc1ccccc1)NC(=O)[C@H](CCC(=O)O)NC(=O)[C@H](C)NC(=O)[C@H](CC(C)C)NC(=O)[C@H](CCCNC(=N)N)NC(=O)[C@H](CCC(N)=O)NC(=O)[C@@H](NC(=O)[C@H](CCC(N)=O)NC(=O)[C@H](C)NC(=O)[C@@H](NC(=O)[C@H](CO)NC(=O)[C@H](CC(C)C)NC(=O)[C@H](CO)NC(=O)CNC(=O)[C@H](C)NC(=O)CC[C@H](NC(=O)CCCCCCCCCCCCCCCCC(=O)O)C(=O)O)[C@@H](C)O)[C@@H](C)O)C(=O)N1CCC[C@H]1C(=O)N[C@@H](CO)C(=O)N[C@@H](CO)C(=O)N[C@H](C(=O)N[C@@H](CC(=O)O)C(=O)N[C@H](C(=O)NCC(=O)N1CCC[C@H]1C(=O)N[C@@H](CC(=O)O)C(=O)N[C@H](C(=O)N1CCC[C@H]1C(N)=O)[C@@H](C)O)C(C)C)[C@@H](C)O [Compound 10, N^1-[(4S)-4-carboxy-4-(17-carboxyheptadecanoylamino)butanoyl]-[Ala1,Gly2,Ser3,Leu4,Ser5,Ala7,Gln8,Glu14,His17,Asp21,Pro22,Pro27,Asp31,Pro34,Asp35,Pro37]-human amylin] ({C18 diacid-γGlu}-AGSLSTAQTQRLAEFLHHSSDPFGAIPSSTDVGPDTP-NH2)	1.44 pM	131 h	27.73 kg·h/L	0.34 kg/L
CC[C@H](C)[C@H](NC(=O)[C@H](CCCCNC(=O)CC[C@H](NC(=O)CCCCCCCCCCCCCCCCC(=O)O)C(=O)O)NC(=O)CNC(=O)[C@H](Cc1ccccc1)NC(=O)[C@H](CC(N)=O)NC(=O)[C@H](CC(=O)O)NC(=O)[C@H](CO)NC(=O)[C@H](CO)NC(=O)[C@H](Cc1c[nH]cn1)NC(=O)[C@H](Cc1c[nH]cn1)NC(=O)[C@H](CC(C)C)NC(=O)[C@H](Cc1ccccc1)NC(=O)[C@H](CCC(=O)O)NC(=O)[C@H](C)NC(=O)[C@H](CC(C)C)NC(=O)[C@H](CCCNC(=N)N)NC(=O)[C@H](C)NC(=O)[C@@H](NC(=O)[C@H](CCC(N)=O)NC(=O)[C@H](C)NC(=O)[C@@H](NC(=O)[C@H](CO)NC(=O)[C@H](CC(C)C)NC(=O)[C@H](Cc1c[nH]cn1)NC(=O)[C@H](CO)NC(=O)[C@H](C)NC(C)=O)[C@@H](C)O)[C@@H](C)O)C(=O)N[C@@H](CC(C)C)C(=O)N1CCC[C@H]1C(=O)N1CCC[C@H]1C(=O)N[C@H](C(=O)N[C@@H](CC(=O)O)C(=O)N[C@H](C(=O)NCC(=O)N[C@@H](CO)C(=O)N[C@@H](CC(N)=O)C(=O)N[C@H](C(=O)N1CCC[C@H]1C(N)=O)[C@@H](C)O)C(C)C)[C@@H](C)O [Compound 41, N^1-acetyl,N{Epsilon-25}-[(4S)-4-carboxy-4-(17-carboxyheptadecanoylamino)butanoyl]-[Ala1,Ser2,His3,Leu4,Ser5,Ala7,Gln8,Ala10,Glu14,His17,Asp21,Lys25,Pro28,Pro29,Asp31,Pro37]-human amylin] (Ac-ASHLSTAQTARLAEFLHHSSDNFGK([γGlu-C18 diacid])ILPPTDVGSNTP-NH2)	1.16 pM			
